From US6642392B1 (priority 1997, dated 2003)
Read-outs that look alike come from different tables or passages of the source.

Experiments:
Type in all cases: in vivo
[1] = system: Pyricularia oryzae; conditions: rice blast
[2] = system: Botrytis cinerea; assay: Test E: gray mold, preventive spray on cucumber seedlings; conditions: gray mold on cucumber
Method in brief: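 Compounds in 3% acetone were suspended with 250 ppm Trem 014 surfactant and sprayed to run-off on cucumber seedlings. B. cinerea spores were inoculated next day, then 48 h saturated humidity at 20° C and 5 days at 20° C. Disease control rated 0–100% versus controls.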

[3] = system: Phytophthora infestans; conditions: tomato late blight
[4] = system: Puccinia recondita; assay: Test B: wheat leaf rust, preventive spray on wheat seedlings; conditions: wheat leaf rust
Method in brief: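 Wheat seedlings were sprayed to run-off with compound (3% acetone, 250 ppm Trem 014), then inoculated with P. recondita spores the next day. They were held 24 h saturated at 20 °C, then 6 days at 20 °C. Ratings are 0–100% disease control versus controls.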

[5] = system: Eiysiphe graminis f. sp. tritici; assay: Test A: wheat powdery mildew, preventive spray on wheat seedlings; conditions: wheat powdery mildew
Method in brief: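 Compounds (3% acetone, 250 ppm Trem 014) sprayed to run-off on wheat seedlings, inoculated next day with spore dust. Incubated 7 days at 20° C before disease rating, 0–100% control relative to untreated controls.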

[6] = 100 = 100% disease control, 0 = no control, unmarked entries (standard test concentration)
[7] = 100 = 100% disease control, 0 = no control relative to controls, unmarked entries (standard test concentration)

Row | SMILES | Test C disease control rating ([1]; tested at 40 ppm) | Test E disease control rating ([2]; tested at 40 ppm) | Test D disease control rating ([3]; tested at 40 ppm) | Test B disease control rating ([4]; tested at 40 ppm) | Test A disease control rating ([5]; tested at 40 ppm) | Test C disease control rating [1, 6] | Test E disease control rating [2, 6] | Test D disease control rating [3, 6] | Test B disease control rating [4, 6] | Test A disease control rating [5, 7]
1 | CCC1(C(=O)NC(C)COc2cccc(Cl)c2Cl)C(C)C1(Cl)Cl (stereo not drawn) [compound 111] | 0% | 0% | 90% | 0% | 90% |  |  |  |  | 
2 | CCC1(C(=O)NC(C)COc2ccc(Cl)cc2Cl)C(C)C1(Cl)Cl (stereo not drawn) [compound 112] | 0% | 0% | 0% | 0% | 71% |  |  |  |  | 
3 | CCC1(C(=O)NC(C)COc2cc(Cl)ccc2Cl)C(C)C1(Cl)Cl (stereo not drawn) [compound 113] | 97% | 0% | 19% | 0% | 0% |  |  |  |  | 
4 | CCC1(C(=O)NC(C)COc2c(Cl)cccc2Cl)C(C)C1(Cl)Cl (stereo not drawn) [compound 114] | 0% | 0% | 0% | 0% | 83% |  |  |  |  | 
5 | CCC1(C(=O)NC(C)COc2cc(Cl)cc(Cl)c2)C(C)C1(Cl)Cl (stereo not drawn) [compound 115] | 32% | 0% | 0% | 0% | 52% |  |  |  |  | 
6 | CCC1(C(=O)NC(C)COc2cc(Cl)cc(Cl)c2Cl)C(C)C1(Cl)Cl (stereo not drawn) [compound 116] | 0% | 0% | 0% | 0% | 21% |  |  |  |  | 
7 | CCC1(C(=O)NC(C)COc2c(Cl)ccc(Cl)c2Cl)C(C)C1(Cl)Cl (stereo not drawn) [compound 117] | 74% | 0% | 0% | 0% | 83% |  |  |  |  | 
8 | CCC1(C(=O)NC(C)COc2c(Cl)cc(Cl)cc2Cl)C(C)C1(Cl)Cl (stereo not drawn) [compound 118] | 0% | 0% | 0% | 0% | 83% |  |  |  |  | 
9 | C=CCc1cccc(C)c1OCC(C)NC(=O)C1(CC)C(C)C1(Cl)Cl (stereo not drawn) [compound 119] |  |  |  |  |  | 32% | 0% | 0% | 0% | 31%
10 | CCC1(C(=O)NC(C)COc2ccc(Cl)cc2F)C(C)C1(Cl)Cl (stereo not drawn) [compound 120] | 52% | 0% | 19% | 0% | 29% |  |  |  |  | 
11 | CCC1(C(=O)NC(C)COc2ccc(F)cc2Cl)C(C)C1(Cl)Cl (stereo not drawn) [compound 121] | 53% | 0% | 0% | 0% | 71% |  |  |  |  | 
12 | CCC1(C(=O)NC(C)COc2cc(F)cc(F)c2Cl)C(C)C1(Cl)Cl (stereo not drawn) [compound 123] | 53% | 0% | 0% | 0% | 90% |  |  |  |  | 
13 | CCC1(C(=O)NC(C)COc2ccc(F)cc2Br)C(C)C1(Cl)Cl (stereo not drawn) [compound 124] | 0% | 0% | 0% | 0% | 83% |  |  |  |  | 
14 | CCC1(C(=O)NC(C)COc2cc(F)ccc2Br)C(C)C1(Cl)Cl (stereo not drawn) [compound 125] | 99% | 0% | 0% | 0% | 90% |  |  |  |  | 
15 | CCC1(C(=O)NC(C)COc2ccc(C)cc2Cl)C(C)C1(Cl)Cl (stereo not drawn) [compound 126] | 73% | 0% | 0% | 0% | 0% |  |  |  |  | 
16 | CCC1(C(=O)NC(C)COc2cc(C)ccc2Cl)C(C)C1(Cl)Cl (stereo not drawn) [compound 127] | 94% | 0% | 19% | 0% | 0% |  |  |  |  | 
17 | CCC1(C(=O)NCCCn2cccc2)C(C)C1(Cl)Cl (stereo not drawn) [compound 145] |  |  |  |  |  | 0% | 0% | 20% | 9% | 0%

Row | SMILES | Test C disease control rating ([1]; tested at 40 ppm) | Test E disease control rating ([2]; tested at 40 ppm) | Test D disease control rating ([3]; tested at 40 ppm) | Test B disease control rating ([4]; tested at 40 ppm) | Test A disease control rating ([5]; tested at 40 ppm) | Test C disease control rating [1, 6] | Test E disease control rating [2, 6] | Test D disease control rating [3, 6] | Test B disease control rating [4, 6] | Test A disease control rating [5, 7]
18 | CCC1(C(=O)NCCCn2cccc2Cl)C(C)C1(Cl)Cl (stereo not drawn) [compound 146] |  |  |  |  |  | 0% | 0% | 0% | 22% | 0%
19 | CCC1(C(=O)NCCCn2c(Cl)cc(Cl)c2Cl)C(C)C1(Cl)Cl (stereo not drawn) [compound 148] |  |  |  |  |  | 74% | 0% | 0% | 0% | 0%
20 | CCC1(C(=O)NCCCn2cccc2C#N)C(C)C1(Cl)Cl (stereo not drawn) [compound 149] |  |  |  |  |  | 53% | 0% | 0% | 27% | 30%
21 | CCC1(C(=O)NCCCn2c(C)cc(C)c2C#N)C(C)C1(Cl)Cl (stereo not drawn) [compound 150] |  |  |  |  |  | 60% | 87% | 0% | 0% | 0%
22 | CCC1(C(=O)NCCOc2ccccc2)C(C)C1(Cl)Cl (stereo not drawn) [compound 153] |  |  |  |  |  | 94% | 0% | 92% | 64% | 92%
23 | CCC1(C(=O)NCCCc2ccccc2)C(C)C1(Cl)Cl (stereo not drawn) [compound 154] |  |  |  |  |  | 52% | 0% | 0% | 0% | 52%
24 | CCC1(C(=O)NCCCc2ccccc2)C(C)C1(Cl)Cl (stereo not drawn) [compound 155] |  |  |  |  |  | 86% | 0% | 23% | 0% | 71%
25 | CCC1(C(=O)NCC=Cc2ccccc2)C(C)C1(Cl)Cl (stereo not drawn) [compound 156] | 0% | 0% | 0% | 0% | 0% |  |  |  |  | 
26 | CCC1(C(=O)NCC=Cc2ccccc2F)C(C)C1(Cl)Cl (stereo not drawn) [compound 157] | 97% | 0% | 0% | 0% | 0% |  |  |  |  | 
27 | CCC1(C(=O)NCC=Cc2ccccc2Cl)C(C)C1(Cl)Cl (stereo not drawn) [compound 158] | 52% | 0% | 0% | 0% | 0% |  |  |  |  | 
28 | CCC1(C(=O)NCC=Cc2cccc(Cl)c2)C(C)C1(Cl)Cl (stereo not drawn) [compound 159] |  |  |  |  |  | 0% | 47% | 0% | 0% | 0%
29 | CCC1(C(=O)NCC=Cc2cccc(Br)c2)C(C)C1(Cl)Cl (stereo not drawn) [compound 160] | 52% | 0% | 85% | 86% | 57% |  |  |  |  | 
30 | CCC1(C(=O)NCC=Cc2ccccc2CC#N)C(C)C1(Cl)Cl (stereo not drawn) [compound 161] | 0% | 0% | 0% | 0% | 0% |  |  |  |  | 
31 | CCC1(C(=O)NCC=Cc2ccc(F)cc2F)C(C)C1(Cl)Cl (stereo not drawn) [compound 162] |  |  |  |  |  | 74% | 82% | 95% | 0% | 0%
32 | CCC1(C(=O)NCC=Cc2cc(Cl)ccc2Cl)C(C)C1(Cl)Cl (stereo not drawn) [compound 163] | 52% | 0% | 42% | 0% | 0% |  |  |  |  | 
33 | CCC1(C(=O)NCC=Cc2cccs2)C(C)C1(Cl)Cl (stereo not drawn) [compound 164] |  |  |  |  |  | 72% | 7% | 56% | 0% | 0%
